Experimental findings from patent publication US12714736B2, “Methods for preventing an immunoglobulin e-related disease” (MY-OR DIAGNOSTICS LTD., priority 2019, dated 2026) are described below.

In the test the test system is Staphylococcus epidermidis. In words: Anti/pro microbial study: Staphylococcus epidermidis cultured on a plate comprising acemannan. It counts as cell-based. The note with it: culture plate, Acemannan 0.2% (w/w) vs control (double-distilled water), FIG. 1. As to the method:
FIG. 1 includes a micrograph of culture plate of Staphylococcus epidermidis. The bacteria were cultured on the plate in presence of either Acemannan (0.2% (w/w)) or control (double-distilled water).
The inventors examined the activity of a composition comprising acemannan. The inventors performed an anti/pro microbial study, by culturing Staphylococcus epidermidis on a plate comprising acemannan. S. epidermidis is a skin resident who is known to play an important role in immune training and pathogen resistance. […] This supports the inventors' notion that the herein disclosed cream supports healthy colonization of the skin microbiome.

For the substance Acemannan, the “growth of S. epidermidis” value is “Comparable levels of bacterial growth”. The “growth of S. epidermidis” value (listed as acemannan) is recorded as “did not affect the growth of S. epidermidis”.
